# Legend:
# heart failure canines = test: Hemodynamic efficacy in heart failure canines (tachycardia-pacing model); format: in vivo, beagle dogs; conditions: for ESP / ESPVR / HR / PRSW / SW / Tau / EDV: heart failure canines, i.v. infusion; for ESP / ESPVR / HR / PRSW / SW / Tau: Dose Rate (μmol/kg/min): CXL-1020 100, (1) 75, (2) 100, (83) 65, (84) 77; for EDV: Dose Rate : CXL-1020 100, (1) 75, (2) 100, (83) 65, (84) 77; for hemodynamic activity compared with CXL-1020: both normal and failing canine models, FIG. 1
# Description: The cardiovascular effects of nitroxyl donors were examined by means of pressure-volume (PV) curve (loops) analysis in conscious, sling-restrained beagle dogs. Animals were allowed free access to drinking water and a commercial canine diet under standard laboratory conditions. Fluorescent lighting was provided via an automatic timer for approximately 12 hours per day. On occasion, the dark cycle was interrupted intermittently due to study-related activities. Temperature and humidity were monitored and recorded daily and maintained to the maximum extent possible between 64° F. and 84° F. and 30% to 70%, respectively. The dogs were acclimated for a period of at least 1 week prior to surgery. Following surgery and recovery the animals were acclimated to sling restraint for a period up to 4.5 hours. Animals were fasted overnight prior to surgery. An indwelling venous catheter was placed in peripheral vein (e.g., cephalic) for administration of anesthetic. General anesthesia was induced intravenously (bolus) with buprenorphine (about 0.015 mg/kg) followed by an intravenous bolus of propofol (about 6 mg/kg). Additionally, a prophylactic antibiotic (cefazolin 20 to 50 mg/kg via i.v.) was given upon induction. […] Anesthesia was maintained with inhaled isoflurane (1% to 3%). Once a stable (surgical) plane of anesthesia had been established, a left-thoracotomy was performed (under strict aseptic conditions) and each animal was chronically instrumented with sono-micrometry crystals providing left-ventricular (LV) dimensions/volume. Additionally, a fluid-filled catheter and a solid-state monometer were placed in the left ventricle for pressure monitoring. A fluid-filled catheters was placed in the right ventricle (RV) and the aorta (Ao) for pressure monitoring/test article administration. […] The catheters/wires were aseptically tunneled and externalized between the scapulae. Over the course of the study, fluid-filled catheters were regularly (at least once weekly) flushed with a locking-solution in order to prevent both clotting and bacterial growth (2-3 mL of Taurolidine-Citrate solution, TCS-04; Access Technologies). Following the cardiovascular instrumentation, the right jugular vein was carefully exposed and cannulated with a bipolar pacing lead/catheter ([…]® Novus; Medtronic). Under fluoroscopic guidance, this pacing lead was advanced normograde into the right ventricle and actively affixed (screwed in) to the apical endocardium. The proximal end of the lead was secured to the pacing device (Kappa 900; Medtronic). Subsequently, the pacemaker was placed/secured in a subcutaneous pocket in the neck. Considering that the heart was exposed via a thoracotomy, a bipolar pacing wire was secured in the right ventricular mid-myocardium. This pacing lead was tunneled/externalized between the scapulae, and used in conjunction with an external impulse generator/pacemaker. The implanted endocardial pacemaker was used as a back-up to the external/epicardial pacemaker. Prior to closure of the chest from the thoracotomy, a chest tube was placed for drainage of any fluid and/or gas that accumulated from the surgical procedure. The tube was aspirated twice daily until the amount of fluid removed was less than 35 mL per aspiration in an approximately 24 hour period. The chest tube was then removed. All animals were administered a prophylactic antibiotic (cefazolin 20 to 50 mg/kg via i.v.) and pain medication (meloxicam at about 0.2 mg/kg via i.v.). If necessary, an additional analgesic was also administered which included a fentanyl patch (25 to 50 mcg/hour). All surgical incisions were closed in layers; the underlying musculature was closed with absorbable sutures and the skin was closed with staples. Following surgery, the animals were allowed to recover for at least 14 days. Cephalexin (20 to 50 mg/kg) was administered orally BID for at least 7 days and meloxicam (0.1 mg/kg) was administered SID orally or subcutaneously for at least 2 days after surgery. […]
# dogs = test: Canine implanted central catheter 72 hour continuous infusion model (clinical and microscopic pathology of vasculature); format: in vivo; conditions: for NOAEL (μg/kg/min) (molar equivalent to CXL-1020): based on microscopic pathology markers (edema, hemorrhage, vascular and perivascular inflammation); for toxicological profile relative to CXL-1020: microscopic pathology, Table 8
# Description: To determine the cause of the inflammation and hind limb swelling, a series of 72-hour continuous infusion investigative studies were conducted over the following 6 months. […] The first site of inflammation, the catheter insertion site, caused the dog hind limb swelling and inflammation observed in the early-terminated follow-up study. Increasing infusate pH from 4 to 6 decreased inflammation, improving the inflammatory profile by approximately 3-fold (see FIG. 4).
# Confirmation of this was obtained through evaluating the nitroxyl donors through detailed histopathology of the vasculature at the site of insertion of into the femoral vein (15 cm distal to the catheter tip), along the catheter track to the catheter tip, and past the tip downstream 20 cm.
# A composite score was calculated from the sum of these findings scores. In FIG. 3, the cumulative histology composite score ranges from 0-2 (low severity) to 11-12 (high severity). […] The NOAEL values determined based on these microscopic pathology markers for a series of nitroxyl donors, expressed in molar equivalent dose rates (μg/kg/min) to CXL-1020, are provided in Table 8.
Structure (SMILES),ESP (heart failure canines) [% Change from Baseline],ESPVR (heart failure canines) [% Change from Baseline],HR (heart failure canines) [% Change from Baseline],PRSW (heart failure canines) [% Change from Baseline],SW (heart failure canines) [% Change from Baseline],Tau (heart failure canines) [% Change from Baseline],EDV (heart failure canines) [% Change from Baseline],"findings around catheter insertion site, at catheter tip and downstream (dogs; 72-hour infusion, dogs)",NOAEL (μg/kg/min) (molar equivalent to CXL-1020) (dogs) [µg/kg/min],"dose rates at which significant undesirable side effects were still demonstrated (dogs; infusate pH 6, dogs)","dose rates causing clinical pathology changes consistent with an inflammatory process (dogs; pH 4 formulation, 1:1 molar CXL-1020:CAPTISOL, diluted in 5% dextrose, 72-hour infusion, dogs)",hemodynamic activity compared with CXL-1020 (heart failure canines),toxicological profile relative to CXL-1020 (dogs)
"CS(=O)(=O)c1ccccc1S(=O)(=O)NO [CXL-1020, N-hydroxy-2-methanesulfonylbenzene-1-sulfonamide, reference compound]",−14.78 ± 3.24,45.42 ± 16.48,−0.23 ± 2.25,21.97 ± 3.79,−12.01 ± 4.24,−17.27 ± 1.39,−12.03 ± 3.72,Vascular inflammation,<3,greater than or equal to 3 μg/kg/min,greater than or equal to 0.03 μg/kg/min,–,–
"Cc1ccc(S(=O)(=O)NO)o1 [Compound 1, N-Hydroxy-5-methylfuran-2-sulfonamide]",−17 ± 1,29 ± 1,−6 ± 2,22 ± 1,10 ± 5,−16 ± 4,−9 ± 2,–,≥180,–,–,comparable hemodynamic activity to CXL-1020,–
"CS(=O)(=O)c1cccc(S(=O)(=O)NO)c1 [Compound 2, N-Hydroxy-3-methanesulfonylbenzene-1-sulfonamide]",−13.83 ± 3.30,22.84 ± 5.69,−1.36 ± 2.06,17.91 ± 1.47,−9.41 ± 2.84,−12.51 ± 2.72,−3.26 ± 1.05,–,≥180,–,–,comparable hemodynamic activity to CXL-1020,–
"O=S(=O)(NO)c1ccco1 [Compound 83, N-Hydroxyfuran-2-sulfonamide]",−18.52 ± 2.59,38.06 ± 8.79,0.05 ± 1.25,14.90 ± 2.27,−9.63 ± 1.70,−18.32 ± 3.06,−4.91 ± 0.57,–,≥90,–,–,comparable hemodynamic activity to CXL-1020,substantially improved toxicological profile relative to CXL-1020
"Cc1ccc(S(=O)(=O)NO)s1 [Compound 84, N-Hydroxy-5-methylthiophene-2-sulfonamide]",−13.72 ± 2.83,51.01 ± 5.85,3.72 ± 2.45,25.03 ± 2.52,−5.96 ± 1.58,15.61 ± 1.58,−13.43 ± 4.63,–,≥60,–,–,comparable hemodynamic activity to CXL-1020,substantially improved toxicological profile relative to CXL-1020
"Cn1ccc(S(=O)(=O)NO)n1 [Compound 85, N-Hydroxy-1-methyl-1H-pyrazole-3-sulfonamide]",–,–,–,–,–,–,–,–,≥180,–,–,comparable hemodynamic activity to CXL-1020,substantially improved toxicological profile relative to CXL-1020

# Source: US10245249B2, “Pharmaceutical compositions comprising nitroxyl donors” (Cardioxyl Pharmaceuticals, Inc., priority 2013, dated 2019)
